# From paper PMC9241695, “Selective Metal Chelation by a Thiosemicarbazone Derivative Interferes with Mitochondrial Respiration and Ribosome Biogenesis in Candida albicans” (Microbiology Spectrum, 2022)
# Experiments:
# C. parapsilosis CP001 = test: Microbroth dilution MIC80; assay type: cell-based, Candida parapsilosis; conditions: Lodderomyces parapsilosis, CP001
# Source text: Compound library. The thiosemicarbazone derivatives Triapine and COTI-2 were purchased from Med Chem Express (MCE). The other 87 thiosemicarbazones used in this study were previously synthesized by our collaborators (1, 2). Their structures are shown in Table 1 and Table S1 to help the reader clearly understand the relationship between structure and activity.
# Strains and culture conditions. Clinically derived C. albicans isolates, including G5, F5, and Gu5, were kindly provided by Professor Joachim Morschhäuser of the University of Würzburg. Other clinical C. albicans isolates were kindly donated by Professor Qingguo Qi of Shandong University and Qianfoshan Hospital of Shandong Province Other Candida strains were obtained from Jinan Central Hospital.
# The zap1 mutant and its complemented strain were kindly provided by Professor Aaron P. Mitchell of Carnegie Mellon University (3). The C. neoformans strains used in this study was kindly donated by Professor Guojian Liao of Southwest University and A. fumigatus strain used in this study was provided by Professor Ling Lu of Nanjing Normal University. Before in vitro and in vivo experiments, all C. albicans strains were grown on YPD agar plates. After culturing at 30°C for 24 h, colonies of each strain were cultured in liquid YPD medium at 30°C with continuous shaking […]
# Antifungal susceptibility testing. To determine in vitro antifungal activities, the microbroth dilution method was carried out in RPMI1640 medium according to the guidelines of the Clinical and Laboratory Standards Institute (4, 5). The initial concentration in RPMI1640 medium was 1 × 10^3 CFU/mL for the C. albicans and C. neoformans suspensions but 1 × 10^4 CFU/mL for A. fumigatus. The range of final drug concentrations was 0.0156–64 μg/mL. The plates were incubated at35°C for 24 […]
# h (for C. albicans, C. krusei, C. tropicalis, C. parapsilosis) or 48 h (for C. neoformans, A. fumigatus). The MIC was determined based on visible growth inhibition compared with the control. All experiments were performed in duplicate. […]
# HepG2 = test: Intracellular ferrous and zinc contents in mammalian cells (FeRhoNox-1, Zinbo-5); assay type: cell-based, human; conditions: 5 μg/mL, 12 h
# Protocol: (§1) FeRhoNox-1 is a commercially available fluorescent probe that specifically binds Fe^2+ and is used to measure intracellular Fe^2 + content. C. albicans SC5314 cells cultured overnight were diluted to roughly 1 × 10^6 cells/mL in RPMI 1640 medium and challenged with various doses of 19ak for 6 h. Next, the cells were fixed with 4% paraformaldehyde for 1 h. After washing three times with PBS, the cells were stained with 5 μM FeRhoNox-1 for 30 min and analyzed by flow cytometry (Becton, Dickinson, CA, USA). Mammalian cells culture is according to the method described in Cytotoxicity testing which was described in Supplemental material in detail. After 12 h of treatment with different concentrations of 19ak, the supernatant was discarded and washed three times with PBS. Cells were collected after staining with FeRhoNox-1 for 30 min in the dark, and the fluorescence intensity of stained cells was analyzed by flow cytometry.
# (§2) C. albicans SC5314 cells grown overnight were pelleted, washed three times with PBS buffer, and resuspended to obtain an OD600 of 2.0. Next, the cells were incubated with various concentrations of 19ak in 96-well plates at 30°C for 6 h, followed by incubation with 10 μM Zinbo-5 for 30 min. Finally, fluorescence was measured in a microplate reader (excitation at 355 nm, emission at 485 nm). […]
# 16HBE = test: as above; assay type: cell-based, human; conditions: 5 μg/mL, 12 h
# Protocol: as §1, §2
# [1] = system: mammalian cells of 16HBE or HepG2; test: CCK-8 reduction assay, mitochondrial dehydrogenase activity; assay type: cell-based, human; conditions: 5 μg/mL, 12 h or 48 h
# Protocol: the fluorescent complex […] (CTF) is commonly used to indicate the intensity of microbial respiration. C. albicans SC5314 treated with 19ak was stained with 1 mM CTC for 30 min, followed by flow cytometry analysis of respiratory activity based on fluorescence intensity. Images of cells were obtained using a fluorescence microscope (IX71, Olympus, Tokyo, Japan). The Cell Counting Kit-8 (CCK-8) assay is used to measure the dehydrogenase activity in the mitochondria of C. albicans or mammalian cells. C. albicans SC5314 (5 × 10^6 cells/mL in RPMI1640 medium) were treated with different concentrations of 19ak in 96-well plates at 30°C for 12 h or 48 h. 10 μL of CCK-8 solution was added to each well. After an additional 2 h of incubation, OD450 in each well was detected with a microplate reader. […]
# Mitochondrial isolation and detection of mitochondrial respiratory chain complex activity. […] The activities of mitochondrial respiratory chain complexes I-IV were determined by using the Micro Mitochondrial Respiratory Chain Complex Activity Assay Kit (Solarbio, Beijing, China). The concentration of protein was determined using the BCA Protein Assay Kit (Beyotime, Haimen, China).
# Mitochondrial complex activity was expressed as nmol/min/mg protein. […]
# [2] = system: human hepatocellular carcinoma cell line HepG2; test: Cytotoxicity testing (MTT); assay type: cell-based; conditions: ratio of IC50 against HepG2 to MIC80 against C. albicans SC5314
# [3] = Cytotoxicity testing (MTT); assay type: cell-based, human; conditions: human, HepG2 cells (hepatocellular carcinoma cell line)
smiles,measurement,setting,value
C/C(=N\NC(=S)N(C)C)c1ccccn1 [Compound 19ak],MIC80,C. parapsilosis CP001,0.125 µg/mL
same,Ferrous and zinc contents in HepG2 cells,HepG2,almost had no effects
same,Ferrous and zinc contents in 16HBE cells,16HBE,almost had no effects
same,Mitochondrial dehydrogenase activity of mammalian cells (CCK-8),[1],minimal inhibitory effect
same,Selectivity index HepG2,[2],82.4
same,IC50,[3],10.3 µg/mL
